One compound from EP0172919A1, “CEPHALOSPORIN DERIVATIVES, PROCESS FOR THEIR PREPARATION, AND THEIR PHARMACEUTICAL USE” (TEIJIN LIMITED, priority 1984, dated 1985) can be followed below.

In one assay the test system is Enterobacter cloacae 963. The assay is described as follows: In vitro antibacterial activity, two-fold agar-plate dilution method (MIC). It counts as cell-based. The settings on record: Enterobacter cloacae 963; agar dilution, 37°C for 16 hours; read-out: MIC. How it is done: (§1) In vitro antibacterial activity was determined by the two-fold agar-plate dillution method.
(§2) One loopful of an overnight culture of each test starin in Trypticase-soy broth (10^6 viable cells per mt) was streaked on heart infusion agar (Muller-Hinton Agar) containing graded concentrations of representative test compound, and the minimal inhibitory concentration (MIC) was expressed in terms of µg/ml after incubation at 37°C for 16 hours.
(§3) In vitro antibacterial activities of other compounds of the present invention were determined in the same way as in Example 26.
(In general: Agar dilution tests growth on a series of plates holding different concentrations.)

Assay [1] relates to Pseudomonas aeruginosa IFO3445. The description is as above. It counts as cell-based. The settings on record: Pseudomonas aeruginosa IFO3445; agar dilution, 37°C for 16 hours; read-out: MIC. How it is done: as §1, §2, §3
The subject of another assay is Staphyrococcus Terajima. The description is as above. It counts as cell-based. The conditions noted are these: Staphyrococcus Terajima; agar dilution, 37°C for 16 hours; read-out: MIC. How it is done: as §1, §2, §3
In assay [2] the test system is E.coli 81. The assay can be described thus: Duration of antibiotic activity: survival of mice dosed before E.coli 81 infection. The format is in vivo, ICR strain male mice. The protocol: The duration of antibiotic activity of compound (100) was determined.
Experiment was performed in ICR strain male mice (5W). The animals were used in a group of 10 per regimen. A solution of E.coli 81 was injected intrapenetreally at a dose of 5 x 10^5 cell/head. Before one or three hours, the compound (100) was injected subcutaneously at a dose of 0.5 mg/head. Survival mice were counted on day 4 after injection.

Assay [3] deals with E.coli 81. The assay is described as follows: In vivo antibacterial activity: survival of mice infected with E.coli 81. Details: species or system ICR strain male mice. How it is done: Experiment was performed in ICR strain male mice (5W) weighing 22 to 25 g. The animals were used in a group of 10 per regimen. Test organism, E.coli 81, was cultured on Mueller-Hinton agar over night at 37°C and suspended in saline to be one minimal lethal dose (5 x 10^5 cells/head). One mililitre of the bacterial suspension was injected intrapenetoreally and, after 15 minutes, mice were treated subcutaneously with various doses of compound (100) and comparative compound B. Survival mice were counted for 4 days and final observation was carried out on day 4.

The subject of assay [4] is Butilus subtilis ATCC6633. The assay is described as follows: In vitro antibacterial activity, two-fold agar-plate dilution method (MIC). The format is cell-based. The conditions noted are these: 37°C for 16 hours. The protocol:
as §1, §2

In assay [5] the test system is Staphyrococcus pyogenes COOK. The assay is described as above. The format is cell-based. The conditions noted are these: Staphyrococcus pyogenes COOK; agar dilution, 37°C for 16 hours; read-out: MIC. The protocol: as §1, §2
Assay [6] concerns Pseudomonas aeruginosa NCTC10490. The assay is described as above. The format is cell-based. The conditions noted are these: Pseudomonas aeruginosa NCTC10490; agar dilution, 37°C for 16 hours; read-out: MIC. The protocol:
as §1, §2

For assay [7], the system named is Pseudomonas aeruginosa PAO1. The assay is described as above. It counts as cell-based. The conditions noted are these: Pseudomonas aeruginosa PAO1; agar dilution, 37°C for 16 hours; read-out: MIC. How it is done:
as §1, §2

The test system of assay [8] is Staphyrococcus aureus FDA209JC-1. The assay is described as above. It counts as cell-based. The conditions noted are these: Staphyrococcus aureus FDA209JC-1; agar dilution, 37°C for 16 hours; read-out: MIC. The protocol: as §1, §2
Assay [9] relates to Staphyrococcus aureus MS 353. The description is as above. It counts as cell-based. The conditions noted are these: Staphyrococcus aureus MS 353; agar dilution, 37°C for 16 hours; read-out: MIC. The protocol:
as §1, §2

For assay [10], the system named is Escherichia coli K-12C-600. Described as above. The format is cell-based. The conditions noted are these: K12C600, 37°C for 16 hours. How it is done: as §1, §2
In assay [11] the test system is Salmonera typhimurium IID 971. Described as above. The format is cell-based. The settings on record: 37°C for 16 hours. The protocol: as §1, §2
The subject of assay [12] is Salmonera schottmuelleri 8001. The description is as above. The format is cell-based. The settings on record: 37°C for 16 hours. The protocol:
as §1, §2

In assay [13] the test system is Micrococcus luteus ATCC9341. Described as above. The format is cell-based. The settings on record: Micrococcus luteus ATCC9341; agar dilution, 37°C for 16 hours; read-out: MIC. How it is done: as §1, §2
Assay [14] concerns E.coli 81. The assay is described as follows: MIC in E.coli 81 (Table IV). It counts as cell-based. The conditions noted are these: Escherichia coli, 81, 16 h, read-out: MIC (μg/mℓ) in E.coli 81. The protocol: as §1, §2

In brackets after ≈: the same amount, converted by molar mass.

Take `CO/N=C(\C(=O)N[C@@H]1C(=O)N2C(C(=O)[O-])=C(C[N+]34CCCC3CCC4)CS[C@H]12)c1csc(N)n1` (stereo partly drawn) [Compound (100), (6R,7R)-7-[(Z)-2-(2-aminothiazol-4-yl)-2-meth-oxyiminoacetoamido]-3-(1-azabicyclo[3,3,0]octane-l-io)methyl-3-cephem-4-carboxylate]: the MIC is 0.05 µg/mL (≈ 0.0987 µM) with Enterobacter cloacae 963; 1.56 µg/mL (≈ 3.08 µM) in assay [1]; 0.39 µg/mL (≈ 0.77 µM) with Staphyrococcus Terajima; 0.39 µg/mL (≈ 0.77 µM) in assay [4]; under 0.0063 µg/mL in assay [5]; 0.025 µg/mL (≈ 0.0493 µM) in [6]. Also, the MIC in [7] is 0.1 µg/mL (≈ 0.197 µM); in [8], 0.39 µg/mL (≈ 0.77 µM); in [9], 0.2 µg/mL (≈ 0.395 µM); in assay [10], 0.05 µg/mL (≈ 0.0987 µM); in assay [11], 0.05 µg/mL (≈ 0.0987 µM); in assay [12] it was under 0.0063 µg/mL. The MIC in assay [13] was under 0.0063 µg/mL; in the assay on E.coli 81 [14], 0.025 µg/mL (≈ 0.0493 µM). In addition, the “Survival percent (%) Injection before one hour” value in the assay on E.coli 81 [2] (0.5 mg/head subcutaneously one hour before intraperitoneal E.coli 81 (5 x 10^5 cell/head), survival on day 4, mice) is reported as 100%. For the same compound, the “Survival percent (%) Injection before three hours” value in the assay with E.coli 81 [2] (0.5 mg/head subcutaneously three hours before intraperitoneal E.coli 81 (5 x 10^5 cell/head), survival on day 4, mice) came to 100%. Further, the “duration of antibiotic activity” value in the assay with E.coli 81 [2] (conclusion in words drawn from Table IV) was “excellent in duration of antibabiotic activity”. Also, the “Survivals percent (%) on day 4” value in the assay with E.coli 81 [3] (Dose 0.016 mg/head subcutaneously 15 minutes after intraperitoneal E.coli 81 (5 x 10^5 cells/head)) was found to be 40%; with E.coli 81 [3] (Dose 0.032 mg/head subcutaneously 15 minutes after intraperitoneal E.coli 81 (5 x 10^5 cells/head)), 40%; with E.coli 81 [3] (Dose 0.063 mg/head subcutaneously 15 minutes after intraperitoneal E.coli 81 (5 x 10^5 cells/head)), 50%; with E.coli 81 [3] (Dose 0.125 mg/head subcutaneously 15 minutes after intraperitoneal E.coli 81 (5 x 10^5 cells/head)), 100%; in the assay with E.coli 81 [3] (Dose 0.25 mg/head subcutaneously 15 minutes after intraperitoneal E.coli 81 (5 x 10^5 cells/head)) it was 100%; with E.coli 81 [3] (Dose 0.5 mg/head subcutaneously 15 minutes after intraperitoneal E.coli 81 (5 x 10^5 cells/head)) it was 100%.
